Measured values from publication PMC8857485, “Prostate secretory protein 94 inhibits sterol binding and export by the mammalian CAP protein CRISP2 in a calcium-sensitive manner” (The Journal of Biological Chemistry, 2022).
Where a name gives a salt, the structure may show the parent alone. Read-outs that look alike come from different tables or passages of the source.

Experiments:
Parameters in all cases: species or system mammalian
CRISP2^L98G Y99P = target: T1, CRISP2^L98G Y99P (Homo sapiens, UniProt P16562, L98G/Y99P); assay: MST binding to CRISP2 double mutant L98G Y99P
T1 construct: made in house; host or cells: E. coli
T1 sequence (P16562 22-243 L98G/Y99P): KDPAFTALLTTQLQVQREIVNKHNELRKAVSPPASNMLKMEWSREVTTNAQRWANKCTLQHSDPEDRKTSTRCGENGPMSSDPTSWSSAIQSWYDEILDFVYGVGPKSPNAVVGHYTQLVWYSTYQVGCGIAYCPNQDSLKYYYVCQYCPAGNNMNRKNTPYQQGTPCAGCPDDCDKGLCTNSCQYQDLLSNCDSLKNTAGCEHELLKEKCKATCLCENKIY
Procedure: (§1) Next, we generated all three double mutant combinations of CRISP2: N97P L98G, N97P Y99P, and L98G Y99P. These three double mutant versions of CRISP2 were again expressed as His-tagged proteins in E. coli and purified, and their capacity to bind sterols in the presence or absence of PSP94 was assessed by MST. […] The capacity of the CRISP2^L98G Y99P double mutant to bind sterols even in the presence of PSP94 was confirmed by the in vivo sterol export assay (Fig. 6, A and B). When expressed in yeast cells, the CRISP2^L98G Y99P double mutant was stably expressed and secreted as monitored by Western blotting (Fig. 6C).
(§2) MST experiments were performed to assess protein–protein, protein–lipid, and protein–calcium interactions using a Monolith NT.115 (Nanotemper Technologies). Proteins were labeled using the RED-tris-NTA His tag protein labeling kit. Labeled CAP proteins, 100 nM, were mixed with a serial dilution of unlabeled PSP94, PSP9^F24G, cholesterol sulfate, or calcium chloride, prepared in binding buffer (20 mM Tris pH 7.5, 30 mM NaCl, 0.05% Triton X-100). Samples were loaded into MST standard capillaries, and MST measurements were performed using an 80% laser power setting. The dissociation constant Kd was obtained by plotting the normalized fluorescence (Fnorm) against the logarithm of ligand concentration. Experiments were performed in triplicates, and data were fitted using the Kd model of the MO.Affinity Analysis software (Nanotemper Technologies). For binding inhibition studies, CAP proteins and PSP94 were preincubated for 5 min at 24 °C before performing binding studies with cholesterol sulfate.

CRISP2 Y99P = target: T2, CRISP2 Y99P (Homo sapiens, UniProt P16562, Y99P); assay: MST binding to CRISP2 single mutant Y99P; conditions: absence of PSP94, read-out: Kd, sterol binding by CRISP2 Y99P
T2 construct: made in house; host or cells: E. coli
Description: This interaction is thus located outside the hydrophobic loop that harbors the sterol-binding CBM. Based on these structural considerations, it is thus not apparent why and how the interaction between PSP94 and CRISP2 would block sterol binding at the CBM. To investigate this question in more detail, we first performed computational docking studies to identify residues in CRISP2 that are critical for the interaction with PSP94. […] Two of these three interacting residues, N97 and L98, are conserved in all three CAP family members tested here, CRISP2, CRISP3, and Pry1 (Fig. 4A). […]
MST experiments were performed to assess protein–protein, protein–lipid, and protein–calcium interactions using a Monolith NT.115 (Nanotemper Technologies). […] The dissociation constant Kd was obtained by plotting the normalized fluorescence (Fnorm) against the logarithm of ligand concentration. […]
Quadruple mutant cells lacking the acyl-CoA synthetases FAA1 and FAA4 and the yeast CAP family members PRY1 and PRY3 (faa1∆ faa4∆ pry1∆ pry3∆) expressing different combinations of plasmid-borne copies of PRY1, CRISP2, and or PSP94, or their respective empty vectors (pRS423 or pRS426) were cultivated overnight. The export of fatty acids into the culture medium was then quantified. […]

CRISP2^N97P Y99P = target: T3, CRISP2^N97P Y99P (Homo sapiens, UniProt P16562, N97P/Y99P); assay: MST binding to CRISP2 double mutant N97P Y99P; conditions: absence of PSP94, read-out: Kd, sterol binding by CRISP2^N97P Y99P
T3 construct: made in house; host or cells: E. coli
Procedure: as §1
as §2, with “Experiments were performed in triplicates, and data were fitted using the Kd model of the MO.Affinity Analysis software (Nanotemper Technologies). For binding inhibition studies, CAP proteins and PSP94 were preincubated for 5 min at 24 °C before performing binding studies with cholesterol sulfate.” left out

T2 sequence (P16562 22-243 Y99P): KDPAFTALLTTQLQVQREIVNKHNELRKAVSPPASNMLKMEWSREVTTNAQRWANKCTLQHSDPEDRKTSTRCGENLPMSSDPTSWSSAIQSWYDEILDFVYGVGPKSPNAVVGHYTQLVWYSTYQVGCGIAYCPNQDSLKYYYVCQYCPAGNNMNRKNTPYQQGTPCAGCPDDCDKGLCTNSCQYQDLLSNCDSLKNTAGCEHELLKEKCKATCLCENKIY
T3 sequence (P16562 22-243 N97P/Y99P): as the sequence (P16562 22-243 Y99P) above, with N76P counted along it

CC(C)CCC[C@@H](C)[C@H]1CC[C@H]2[C@@H]3CC=C4C[C@@H](OS(=O)(=O)O)CC[C@]4(C)[C@H]3CC[C@]12C [cholesterol sulfate]
Kd (CRISP2^L98G Y99P; +PSP94, read-out: Kd, sterol binding by CRISP2^L98G Y99P in presence of PSP94): 0.5 µM
Kd (CRISP2^L98G Y99P; PSP94^F24G preincubated 5 min at 24 °C, read-out: Kd, sterol binding by CRISP2^L98G Y99P in presence of PSP94^F24G): 4.5 ± 2.08 µM
Kd (CRISP2^L98G Y99P; absence of PSP94, read-out: Kd, sterol binding by CRISP2^L98G Y99P): 2.2 ± 1.7 µM
Kd (CRISP2 Y99P): 2.5 ± 0.9 µM
Kd (CRISP2^N97P Y99P): 2.7 ± 2.3 µM
